{
  "source": "ChEMBL document CHEMBL5154646",
  "about": "“Structure-guided optimization of 1H-imidazole-2-carboxylic acid derivatives affording potent VIM-Type metallo-β-lactamase inhibitors” (Eur J Med Chem, 2022)",
  "key": {"Pseudomonas aeruginosa [1]": {"test_system": "Pseudomonas aeruginosa", "assay": "Potentiation of meropenem-induced antibacterial activity against Pseudomonas aeruginosa W35 expressing VIM-2 assessed as fold reduction meropenem MIC at 10 ug/ml incubated for 18 to 20 hrs in presence of meropenem by CLSI based broth microtiter dilution method", "type": "functional", "details": "dose 10 µg/ml; time 18-20 hrs"}, "Escherichia coli [2]": {"test_system": "Escherichia coli", "assay": "Potentiation of meropenem-induced antibacterial activity against Escherichia coli C1542 expressing VIM-2 assessed as meropenem MIC at 10 ug/ml incubated for 18 to 20 hrs by CLSI based broth microtiter dilution method (reference value: 16 ug/ml)", "type": "functional", "details": "dose 10 µg/ml, time 18-20 hrs"}, "[3]": {"assay": "Toxicity in ICR mouse assessed as change in behavior at 500 to 2000 mg/kg, ip administered for 14 days", "type": "organism-based", "details": "in vivo, 336 h, dose 500-2000 mg/kg, time 14 day"}, "Pseudomonas aeruginosa [4]": {"test_system": "Pseudomonas aeruginosa", "assay": "Synergistic antibacterial activity against Pseudomonas aeruginosa W35 expressing VIM-2 assessed as fractional inhibitory concentration index incubated for 18 to 20 hrs in presence of meropenem by checkerboard microdilution assay", "type": "functional", "details": "time 18-20 hrs"}, "[5]": {"assay": "Toxicity in ip dosed ICR mouse assessed as maximum tolerated dose administered for 14 days", "type": "organism-based", "details": "in vivo, time 14 day"}, "Escherichia coli [6]": {"test_system": "Escherichia coli", "assay": "Potentiation of meropenem-induced antibacterial activity against Escherichia coli C1541 expressing IMP-1 assessed as fold reduction in meropenem MIC at 10 ug/ml incubated for 18 to 20 hrs by CLSI based broth microtiter dilution method", "type": "functional", "details": "dose 10 µg/ml; time 18-20 hrs"}, "Escherichia coli [7]": {"test_system": "Escherichia coli", "assay": "Potentiation of meropenem-induced antibacterial activity against Escherichia coli C1541 expressing IMP-1 assessed as meropenem MIC at 10 ug/ml incubated for 18 to 20 hrs by broth microtiter dilution method (reference value: 32 ug/ml)", "type": "functional", "details": "dose 10 µg/ml, time 18-20 hrs"}, "[8]": {"assay": "Inhibition of bacterial NDM-1 (1 to 270 residues) expressed in Escherichia coli Transetta (DE3) using FC-5 as substrate preincubated with enzyme for 10 mins followed by substrate addition by fluorescence based analysis", "design": "species or system Bacteria"}, "[9]": {"assay": "Toxicity in ICR mouse assessed as effect on histological architecture of kidney at 500 to 2000 mg/kg, ip administered for 14 days by hematoxylin and eosin staining based histopathological assay", "type": "organism-based", "details": "in vivo, 336 h, dose 500-2000 mg/kg, time 14 day"}, "[10]": {"assay": "Inhibition of bacterial recombinant full length C-terminal-TEV-His6-tagged VIM-1 expressed in Escherichia coli Transetta using FC-5 as substrate preincubated with enzyme for 10 mins followed by substrate addition by fluorescence based analysis", "design": "species or system Bacteria"}, "[11]": {"assay": "Inhibition of bacterial VIM-2 (27 to 266 residues) expressed in Escherichia coli Transetta (DE3) using FC-5 as substrate preincubated with enzyme for 10 mins followed by substrate addition in presence of 1 uM Zn2+ by fluorescence based analysis", "design": "species or system Bacteria"}, "Pseudomonas aeruginosa [12]": {"test_system": "Pseudomonas aeruginosa", "assay": "Induction of morphological changes in Pseudomonas aeruginosa W35 expressing VIM-2 assessed as elongated morphology with localized swelling at 10 ug/ml incubated for 1 hr in presence of meropenem by confocal microscopic analysis", "type": "functional, organism-based", "details": "dose 10.0 µg/ml"}, "Escherichia coli [13]": {"test_system": "Escherichia coli", "assay": "Potentiation of meropenem-induced antibacterial activity against Escherichia coli C1580 expressing VIM-2 assessed as fold reduction in meropenem MIC at 10 ug/ml incubated for 18 to 20 hrs by CLSI based broth microtiter dilution method", "type": "functional", "details": "dose 10 µg/ml; time 18-20 hrs"}, "[14]": {"assay": "Cmax in Sprague-Dawley rat at 100 mg/kg, ip by UPLC analysis", "type": "ADME, organism-based", "design": "dose 100 mg/kg, route ip", "details": "in vivo"}, "Escherichia coli [15]": {"test_system": "Escherichia coli", "assay": "Bactericidal activity against Escherichia coli C1580 expressing VIM-2 assessed as induction of bacterial ultrastructural changes by measuring breakdown of cell wall with leakage of cellular contents at 20 ug/ml incubated for 1 hr in presence of meropenem by transmission electron microscopy", "type": "functional, organism-based", "details": "dose 20.0 µg/ml"}, "Pseudomonas aeruginosa [16]": {"test_system": "Pseudomonas aeruginosa", "assay": "Induction of morphological changes in Pseudomonas aeruginosa W35 expressing VIM-2 assessed as localized swelling, elongation with increased cell permeability at 10 ug/ml incubated for 1 hr in presence of meropenem by transmission electron microscopy", "type": "functional, organism-based", "details": "dose 10.0 µg/ml"}, "Pseudomonas aeruginosa [17]": {"test_system": "Pseudomonas aeruginosa", "assay": "Potentiation of meropenem-induced antibacterial activity against Pseudomonas aeruginosa W35 expressing VIM-2 assessed as fold reduction in meropenem MIC at 100 ug/ml incubated for 18 to 20 hrs by CLSI based broth microtiter dilution method", "type": "functional", "details": "dose 100 µg/ml; time 18-20 hrs"}, "Pseudomonas aeruginosa [18]": {"test_system": "Pseudomonas aeruginosa", "assay": "Potentiation of meropenem-induced antibacterial activity against Pseudomonas aeruginosa 5621 expressing VIM-2 assessed as meropenem MIC at 100 ug/ml incubated for 18 to 20 hrs in presence of meropenem by CLSI based broth microtiter dilution method (reference value: 64 ug/ml)", "type": "functional", "details": "dose 100 µg/ml, time 18-20 hrs"}, "Escherichia coli [19]": {"test_system": "Escherichia coli", "assay": "Synergistic antibacterial activity against Escherichia coli C1541 expressing VIM-2 assessed as fractional inhibitory concentration index incubated for 18 to 20 hrs in presence of meropenem by checkerboard microdilution assay", "type": "functional", "details": "time 18-20 hrs"}, "Escherichia coli [20]": {"test_system": "Escherichia coli", "assay": "Synergistic antibacterial activity against Escherichia coli C1541 expressing VIM-2 assessed as fractional inhibitory concentration index incubated for 18 to 20 hrs in presence of meropenem and 100 uM of zinc sulfate by checkerboard microdilution assay", "type": "functional", "details": "time 18-20 hrs"}, "Escherichia coli [21]": {"test_system": "Escherichia coli", "assay": "Synergistic antibacterial activity against Escherichia coli C1541 expressing VIM-2 assessed as fractional inhibitory concentration index incubated for 18 to 20 hrs in presence of meropenem and 1 uM of zinc sulfate by checkerboard microdilution assay", "type": "functional", "details": "time 18-20 hrs"}, "[22]": {"assay": "Toxicity in ICR mouse assessed as change in body weight at 500 to 2000 mg/kg, ip administered for 14 days", "type": "organism-based", "details": "in vivo, 336 h, dose 500-2000 mg/kg, time 14 day"}, "Escherichia coli [23]": {"test_system": "Escherichia coli", "assay": "Potentiation of meropenem-induced antibacterial activity against Escherichia coli C1580 expressing VIM-2 assessed as meropenem MIC at 10 ug/ml incubated for 18 to 20 hrs by CLSI based broth microtiter dilution method (reference value: 32 ug/ml)", "type": "functional", "details": "dose 10 µg/ml, time 18-20 hrs"}, "[24]": {"assay": "Toxicity in ICR mouse assessed as effect on histological architecture of heart at 500 to 2000 mg/kg, ip administered for 14 days by hematoxylin and eosin staining based histopathological assay", "type": "organism-based", "details": "in vivo, 336 h, dose 500-2000 mg/kg, time 14 day"}, "[25]": {"assay": "Inhibition of bacterial VIM-2 (27 to 266 residues) expressed in Escherichia coli Transetta (DE3) using FC-5 as substrate preincubated with enzyme for 10 mins followed by substrate addition by fluorescence based analysis", "design": "species or system Bacteria"}, "[26]": {"assay": "Solubility of the compound in water", "type": "physicochemical"}, "Escherichia coli [27]": {"test_system": "Escherichia coli", "assay": "Antibacterial activity against Escherichia coli C1580 expressing VIM-2 assessed as elongated and filamentous bacterial cells at 20 ug/ml incubated for 1 hr in presence of meropenem by confocal microscopy", "type": "functional, organism-based", "details": "dose 20.0 µg/ml"}, "[28]": {"assay": "Half life in Sprague-Dawley rat at 100 mg/kg, ip by UPLC analysis", "type": "ADME, organism-based", "details": "in vivo"}, "Pseudomonas aeruginosa [29]": {"test_system": "Pseudomonas aeruginosa", "assay": "Potentiation of meropenem-induced antibacterial activity against Pseudomonas aeruginosa 5621 expressing VIM-2 assessed as fold reduction in meropenem MIC at 100 ug/ml incubated for 18 to 20 hrs by CLSI based broth microtiter dilution method", "type": "functional", "details": "dose 100 µg/ml; time 18-20 hrs"}, "[30]": {"assay": "Toxicity in ICR mouse assessed as change in overall appearance at 500 to 2000 mg/kg, ip administered for 14 days", "type": "organism-based", "details": "in vivo, 336 h, dose 500-2000 mg/kg, time 14 day"}, "[31]": {"assay": "Toxicity in ICR mouse assessed as effect on histological architecture of liver at 500 to 2000 mg/kg, ip administered for 14 days by hematoxylin and eosin staining based histopathological assay", "type": "organism-based", "details": "in vivo, 336 h, dose 500-2000 mg/kg, time 14 day"}},
  "note": "Calls of active or inactive are those of the source. The rule behind the calls is not given here.",
  "data": [
    {"smiles": "O=C(O)c1nccn1Cc1ccncc1", "values": [
      {"measurement": "fold change (FC)", "setting": "Pseudomonas aeruginosa [1]", "value": 4},
      {"measurement": "MIC", "setting": "Escherichia coli [2]", "value": "< 0.25", "unit": "µg/mL"},
      {"measurement": "Activity", "setting": "[3]", "value": "Non-Toxic"},
      {"measurement": "fractional inhibitory concentration index (FICI)", "setting": "Pseudomonas aeruginosa [4]", "value": 0.25},
      {"measurement": "MTD at 336 h", "setting": "[5]", "value": "≤ 2000", "unit": "mg/kg"},
      {"measurement": "fold change (FC)", "setting": "Escherichia coli [6]", "value": 1},
      {"measurement": "MIC", "setting": "Escherichia coli [7]", "value": 32, "unit": "µg/mL"},
      {"measurement": "IC50", "setting": "[8]", "value": "> 300", "unit": "µM"},
      {"measurement": "Activity", "setting": "[9]", "value": "Non-Toxic"},
      {"measurement": "IC50", "setting": "[10]", "value": 29.5, "unit": "µM"},
      {"measurement": "IC50", "setting": "[11]", "value": 220, "unit": "nM"},
      {"measurement": "Activity", "setting": "Pseudomonas aeruginosa [12]", "value": "Active"},
      {"measurement": "fold change (FC)", "setting": "Escherichia coli [13]", "value": 32},
      {"measurement": "Cmax", "setting": "[14]", "value": 143, "unit": "µg/mL"},
      {"measurement": "Activity", "setting": "Escherichia coli [15]", "value": "Active"},
      {"measurement": "Activity", "setting": "Pseudomonas aeruginosa [16]", "value": "Active"},
      {"measurement": "fold change (FC)", "setting": "Pseudomonas aeruginosa [17]", "value": 16},
      {"measurement": "MIC", "setting": "Pseudomonas aeruginosa [18]", "value": 32, "unit": "µg/mL"},
      {"measurement": "fractional inhibitory concentration index (FICI)", "setting": "Escherichia coli [19]", "value": 0.05},
      {"measurement": "fractional inhibitory concentration index (FICI)", "setting": "Escherichia coli [20]", "value": 0.05},
      {"measurement": "fractional inhibitory concentration index (FICI)", "setting": "Escherichia coli [21]", "value": 0.05},
      {"measurement": "Activity", "setting": "[22]", "value": "Non-Toxic"},
      {"measurement": "MIC", "setting": "Escherichia coli [23]", "value": 1, "unit": "µg/mL"},
      {"measurement": "Activity", "setting": "[24]", "value": "Non-Toxic"},
      {"measurement": "IC50", "setting": "[25]", "value": 560, "unit": "nM"},
      {"measurement": "solubility", "setting": "[26]", "value": "> 20", "unit": "mg/mL"},
      {"measurement": "Activity", "setting": "Escherichia coli [27]", "value": "Active"},
      {"measurement": "half-life", "setting": "[28]", "value": 74.4, "unit": "min"},
      {"measurement": "fold change (FC)", "setting": "Pseudomonas aeruginosa [29]", "value": 2},
      {"measurement": "Activity", "setting": "[30]", "value": "Non-Toxic"},
      {"measurement": "Activity", "setting": "[31]", "value": "Non-Toxic"}
    ]}
  ]
}
